Experimental data as given in patent publication US6017958A, “Method of treating malignant tumors with thyroxine analogues having no significant hormonal activity” (Octamer, Inc., priority 1997, dated 2000).

How the values were obtained:
[1] = test system: microtubule protein (MTP); test: Microtubule protein (MTP) polymerization optical test; type: biochemical, bovine or rabbit; details: for Percent inhibition of initial velocity of microtubule assembly: 10 μM, 1 mM GTP, 37° C.
Procedure: Preparation of MTP and an optical test for polymerization was adopted from published methods, Gaskin, et al., 1974, "Turbidimetric studies of the in vitro assembly and disassembly of porcine neurotubules", J. Mol. Biol. 89:737-758; Tiwari, et al., 1993, "A pH and temperature-dependent cycling method that doubles the yield of microtubule protein", Anal. Biochem. 215:96-103. Bovine or rabbit brain was homogenized in an equal volume of ice cold buffer containing 100 mM Pipes/K^+ (pH 7.4), 4 mM EGTA, 1 mM MgCl2, 0.5 mM DTT and 0.1 mM PMSF, and centrifuged at 39,000 g for 1 hour at 4° C. To the supernatant, DMSO (8% final concentration) and GTP (1 mM final concentration) were added, followed by incubation at 37° C. for 30 minutes. Microtubules were pelleted at 100,000 g at 37° C for 30 minutes. The pellets were incubated on ice for 15 minutes, followed by resuspension in ice cold PEM buffer (100 mM Pipes/K+(pH 6.9), 1 mM EGTA, 1 mM MgCl2). This warm polymerization and cold depolymerization cycle was repeated once more and the cold, resuspended monomeric MTP (8-10 mg/ml protein) was used for the optical test for polymerization kinetics. Both rabbit or bovine brain yielded identical MTP preparations.
The composition of the optical test is described in the legends of Figures and Table 12. The polymerization reaction was started by the addition of 100 μl of MTP solution (equivalent to 0.8-1.0 mg protein) and initial linear rates of increase in absorbance at 350 nm followed and recorded at 37° C. (see FIG. 1) in a Perkin-Elmer 552 double beam spectrophotometer, equipped with a thermostatically controlled cuvette holder.
[…] Microtubule assembly at 37° C. was monitored at λ=350 nm and initial velocities were calculated as mA350 /min. […] The values are averages of duplicate assays.

[2] = test system: E-ras 20 cells (E-ras transformed bovine endothelial cells); test: Tumorigenicity of pretreated E-ras 20 cells in athymic nude mice; type: in vivo, bovine cells in nude mice; details: 10 μM, 4 days pretreatment; tumor size at day 25
Procedure: E-ras transformed bovine endothelial cells (Bauer et al., 1996, Intl. J. Oncology 8:239-252) were exposed to 10 μM DIME for […]. The DIME-treated cells (10^5 or 10^6 cells/100 μL) were injected subcutaneously into nude mice and tumor progression followed for 25 days.
Tumorigenicity of E-ras 20 Cells in athymic nude mice was assayed as described previously. Bauer et al., 1996, "Modification of growth related enzymatic pathways and apparent loss of tumorigenicity of a ras-transformed bovine endothelial cell line by treatment with 5-iodo-6-amino-1,2-benzopyrone (INH2 BP)" Intl. J. Oncol. 8:239-252. The in vivo antitumorigenic action of DIME was assayed on athymic mice inoculated with 10^6 MDA-MB-231 cells, as in the tumorgenicity assay. In about 10-14 days when subcutaneous tumors appeared, DIME treatment consisting of p.o. administration of DIME suspension (once a day) was commenced and continued for 28-32 days as reported, Kun et al., 1996, "Induction of tumor apotosis by methyl-3,5-diiodo-4-(4'-methoxyphenoxy) benzoate (DIME)", Abstract No. 102, Int. J. Oncol. 9:supplement 829.
The structural specificity of DIME and its homologs and analogs can be assessed by examining Table 7 and Table 8. We have prepared 17 novel structural analogs of DIME and compared the antitumor activity of 10 of the compounds (Table 8) which appears sufficient to draw some general conclusions. The biological assay chosen was the determination of antitumorigenic action of the drugs on the in vivo tumorigenicity of E-ras cells in nude mice, Bauer et al., 1996, "Modification of growth related enzymatic pathways and apparent loss of tumorigenicity of a ras-transformed bovine endothelial cell line by treatment with 5-iodo-6-amino-1,2-benzopyrone (INH2 BP)" Intl. J. Oncol. 8:239-252. E-ras 20 cells (10^5 or 10^6) were incubated with 10 μM DIME or analogs for 4 days, then 10^5 and 10^6 cells were inoculated subcutaneously into nude mice (5 per test) and rates of tumor formation quantitated by direct tumor volume measurements (cf. 2). […] Identical antitumorigenic tests were performed with nine DIME analogs and taking the effect of DIME as 100% (comparing tumor sizes at day 25) the antitumor efficacy was calculated as percent of DIME activity. […] Results summarized in Table 8 illustrate that substituents in R1 and R2 determine antitumor efficacy.
The efficacy of DIME analogs on in vivo tumorigenicity of Eras 20 cells i
athymic mice was compared to that of DIME (compound 1) which was taken as
100, determining the size of tumor reduction at day 25. Pretreatment with
DIME or its analogs (Table 7) was with 10 μM for 4 days prior to s.c.

[3] = test system: seven human cancer cell lines; test: Cytocidal action on human cancer cell lines; type: cell-based
Procedure: Seven human cancer cell lines were obtained from the American Tissue Culture Collection (Rockville, Md.) and maintained in the recommended growth media. Cells were seeded into wells (2 cm^2) at a density of 2×10^4 cells/cm^2. Various concentrations of Compounds 1-13 were added to the media at the time of seeding.
The cultures were incubated for 72 hours at 37° C. (5% CO2 atmosphere). Following incubation, cells were detached with trypsin and counted in a hemocytometer.

[4] = test system: MDA-MB-231 cells; test: Immunocytochemistry of mitotic spindle and spindle-associated proteins; type: cell-based, human; details: 100 nM, 18 hrs; data not shown
Procedure: Cells were fixed in methanol at -20° C. for 5 min. The primary antibody was mouse monoclonal anti-beta tubulin (Amersham) and secondary antibody from goat, conjugated to fluorescein isothiocyanate from Cappel (Durham, N.C., USA). The DNA of nuclei was stained by 10 min of incubation in 0.05 μg/ml 4'-6-diamidono-2-phenylindole (DAPI). Stained cells were viewed with either a Zeiss 40xPlan-Neofluar or a Nikon 60xPlanApo objective. For classification of cells in the mitotic phase, prophase and metaphase were combined into a single category, because it was difficult to distinguish late prophase from metaphase.
In preliminary studies (data not shown) we have also studied the behavior of certain spindle-associated proteins by the immunocytologic technique.

[5] = test system: MDA-MD-231 cells; test: Inhibition of tumor cell growth; type: cell-based, human; details: 3 days; for Cells (growth): control 0.95
Procedure: MDA-MD-231 human cancer cells were obtained from the American Tissue Culture Collection (Rockville, Md.) and maintained in the recommended growth media. Cells were grown in the presence of various concentrations of Compounds 1 and 14 for 3 days at 37° C.

[6] = test system: protein phosphatase 2A; test: Activation of purified protein phosphatase 2A (32P-histone H1 dephosphorylation); type: biochemical; details: 50 μM
Procedure: 2.1 Preparation of ^32 P-labeled Histone H1 Substrate
Histone H1 was phosphorylated with protein kinase C (Upstate Biotechnology,Inc., Lake Placid, N.Y.) in a volume of 100 μL according to standard protocols. Alternatively, histone H1 was phosphorylated with p34cdc2 kinase purified from rapidly multiplying Mytilus Edulis embryos at 4-8 stage after isolation with the p^13 -Suc agarose technique (Smythe and Newport, 1992, "Coupling of Mitosis to the Completion of S Phase in Xenopus Occurs via Modulation of the Tyrosine Kinase that Phosphorylates p34cdc2," Cell 68:787-797).
125 ng purified protein phosphatase 2A (Upstate Biotechnology, Inc., Lake Placid, N.Y.; Usui et al., 1983, J. Biol. Chem. 258:10455-10463) was preincubated with thyroxine analogue (50 μM) in buffer (20 mM MOPS or Tris, pH 7.5, 1 mM MgCl2, 60 μM β-mercaptoethanol) for 10 min. at 23° C. Total reaction volume was 20 μL. ^32 P-labeled histone H1 substrate (10 μg, 10^5 cpm) was added and the dephosphorylation reaction allowed to proceed for 5 min. at 23° C., after which time the reaction was quenched by addition of 2 μL Laeimli buffer. An identical reaction containing 125 ng untreated protein phosphatase 2A was run as a control.
Phosphorylated and dephosphorylated histone H1 were separated by gel electrophoresis (12% SDS-PAGE), bands containing phosphorylated histone H1 excised and assayed for ^32 P activity via scintillation counter.
The velocity of dephosphorylation in 5 min. is an indication of the initial velocity (Vinit) of the dephosphorylation reaction.

COC(=O)c1cc(I)c(Oc2ccc(OC(F)(F)F)cc2)c(I)c1 [Compound 18]
Percent inhibition of initial velocity of microtubule assembly [1]: 7%

CNC(=O)c1cc(I)c(Oc2ccc(OC)cc2)c(I)c1 [Compound 8, 3,5-diiodo-4-(4'-methoxyphenoxy)-N-methyl benzamide]
Efficacy (inhibition of E-ras 20 tumorigenicity, DIME = 100) [2]: 22%

COc1ccc(Oc2c(I)cc(C(N)=O)cc2I)cc1 [Compound 7, 3,5-diiodo-4-(4'-methoxyphenoxy)benzamide]
Percent inhibition of initial velocity of microtubule assembly [1]: 43%
Efficacy (inhibition of E-ras 20 tumorigenicity, DIME = 100) [2]: 53%

COc1ccc(Oc2c(I)cc(C(=O)O)cc2I)cc1 [Compound 6, 3,5-diiodo-4-(4'-methoxyphenoxy)benzoic acid]
Percent inhibition of initial velocity of microtubule assembly [1]: 0%
inhibitory effect on MTP polymerization ([1]; methyl ester replaced): completely abolishes the inhibitory effect on MTP polymerization
Efficacy (inhibition of E-ras 20 tumorigenicity, DIME = 100) [2]: 45%

CCOC(=O)c1cc(I)c(Oc2ccc(OC)cc2)c(I)c1 [Compound 5, Ethyl 3,5-diiodo-4-(4'-methoxyphenoxy)benzoate]
Percent inhibition of initial velocity of microtubule assembly [1]: 35%
Efficacy (inhibition of E-ras 20 tumorigenicity, DIME = 100) [2]: 83%
activity in cellular assays and in vivo [3]: completely inactive

COC(=O)c1cc(I)c(Oc2ccc(O)cc2)c(I)c1 [Compound 10, Methyl 3,5-diiodo-4-(4'-hydroxyphenoxy) benzoate]
Efficacy (inhibition of E-ras 20 tumorigenicity, DIME = 100) [2]: 14%

COc1ccc(Oc2c(I)cc(C(=O)N(C)C)cc2I)cc1 [Compound 9, 3,5-diiodo-4-(4'-methoxyphenoxy)-N,N-dimethyl benzamide]
Percent inhibition of initial velocity of microtubule assembly [1]: 6%
Efficacy (inhibition of E-ras 20 tumorigenicity, DIME = 100) [2]: 64%

C=C1[C@@H](O)[C@@H]2O[C@]3(CC[C@H](/C=C/[C@@H](C)[C@@H]4CC(C)=C[C@@]5(O[C@H](C[C@@](C)(O)C(=O)O)CC[C@H]5O)O4)O3)CC[C@H]2O[C@@H]1[C@@H](O)C[C@H](C)[C@H]1O[C@@]2(CCCCO2)CC[C@H]1C [okadaic acid, reference compound]
cdc-2 kinase- and pp2a-spindle association [4]: abolished only cdc-2 kinase- and pp2a-spindle association

CCOc1ccc(Oc2c(I)cc(C(=O)OC)cc2I)cc1 [Compound 2, Methyl 3,5-diiodo-4-(4'-ethoxyphenoxy)benzoate]
Percent inhibition of initial velocity of microtubule assembly [1]: 76%
Efficacy (inhibition of E-ras 20 tumorigenicity, DIME = 100) [2]: 93%
Emax ([3]; 72 hours, human cancer cells, read-out: maximal cytocidal activity as compared to DIME): 25 to 30%

CCCCOc1ccc(Oc2c(I)cc(C(=O)OC)cc2I)cc1 [Compound 4, Methyl 3,5-diiodo-4-(4'-n-butoxyphenoxy)benzoate]
Percent inhibition of initial velocity of microtubule assembly [1]: 8%
Efficacy (inhibition of E-ras 20 tumorigenicity, DIME = 100) [2]: 4%

COC(=O)c1cc(I)c(Oc2ccc(OC)cc2Cl)c(I)c1 [Compound 14, Methyl 3,5-diiodo-4-(2'-chloro-4'-methoxyphenoxy)benzoate]
Cells (growth) ([5]; 0.5 μM): 0.95 ×10^6
Cells (growth) ([5]; 1.0 μM): 0.71 ×10^6
Cells (growth) ([5]; 2.0 μM): 0.20 ×10^6
inhibitory activity as compared to DIME [5]: about 25%

CCCOc1ccc(Oc2c(I)cc(C(=O)OC)cc2I)cc1 [Compound 3, Methyl 3,5-diiodo-4-(4'-n-propoxyphenoxy)benzoate]
activation of protein phosphatase 2A [6]: did not activate
Activity/5 min (initial velocity of histone H1 dephosphorylation) ([6]; 10 min preincubation, control 10217 ± 1708, average of three samples): 7521 ± 1562 cpm
Efficacy (inhibition of E-ras 20 tumorigenicity, DIME = 100) [2]: 44%
activity in cellular assays and in vivo [3]: completely inactive
